Data reported in EP0552379B1, “DIHYDROPYRIDINE DERIVATIVES, AND PROCESS FOR THEIR PREPARATION” (FUJISAWA PHARMACEUTICAL CO., LTD., priority 1991, dated 1993).
pKi: −log10 of the molar value.

What was measured:
β receptor = β receptor binding (^3H-Dihydroalprenolol (DHA) binding to crude cardiac microsomal membrane); set-up: species or system SD strain rats; conditions: [^3H]DHA 1nM, rat heart microsomal membrane, 25°C, 30 minutes
Method: (3) β receptor binding Test methods (a) Crude cardiac microsomal membrane preparation SD strain rats were sacrificed by decapitation. The heart was removed and homogenized in buffer (0.25M sucrose, 10mM MOPS, pH7.4) by using Polytoron (Kinematica). The homogenate was homogenized by teflon glass homogenizer. The homogenate was centrifuged (1,000g x 10 min) to remove tissue clumps and the supernatant was centrifuged (10,000g x 10 min) twice. The supernatant was centrifuged (100,000g x 60 min) to yield pellets. The pellets were resuspended in buffer (50mM Tris-HCl, pH7.4), which were referred to as crude microsomal membrane fractions. The obtained suspensions were stored at -80°C until use. (b) ^3H-Dihydroalprenolol (DHA) binding to preparative membrane Frozen crude microsomal membrane fractions were thawed. [^3H) DHA (1nM) was incubated with 50 µl of the membrane preparation at 25°C for 30 minutes in a final volume of 200 µl. At the end of the incubation period, reaction mixture was quickly filtrated over a Whatman GF/C glass filter under aspiration. The filters were washed 5 times with 3ml of the buffer (50mM Tris-HCl, pH7.4). The radioactivity was counted in 6ml of Clear-sol I in Packard scintillation counter (Packard TRI-CARB 4530).

Wistar rats = assay: Hypotensive effect (mean arterial pressure, femoral artery, intravenous administration); format: in vivo; conditions: dose 1.0 mg/kg, intravenously
Method: Three Wistar rats were used per group. Each animal was placed in a cage sized to the body after cannulation of catheters into the femoral artery and vein under ether anesthesia. Blood pressure was measured in the femoral artery by means of a pressure transducer and recorded as electrically integrated values of mean arterial pressure. Heart rate was counted from instant arterial pressure pulses by running the record paper at a faster speed periodically.
The test compound was administered intravenously through a catheter cannulated in the femoral vein more than 2 hours later the completion of the operation.

pKi (β receptor): 6.29
SMILES: COC(=O)C1=C(C(F)(F)F)NC(C)=C(C(=O)OCCc2ccc(OCC(O)CNC(C)C)cc2)C1c1cccc([N+](=O)[O-])c1 (centres unmarked) [Dihydropyridine A, 2-{p-(2-hydroxy-3-isopropylaminopropoxy)phenyl}ethyl 1,4-dihydro-3-methoxycarbonyl-6-methyl-4-m-nitrophenyl-2-trifluoromethylpyridine-5-carboxylate]
Maximum change of blood pressure (Wistar rats): -39(%)
